Experiment: Stability under stressed conditions (assay and degradation products)
Assay type: physicochemical
Conditions: storage over 5 weeks at 40 °C with 75 % RH and open cap
Description: In Table 1 assay and degradation products results for ranolazine per se, a pharmaceutical composition of the present invention, comprising ranolazine and HPMC-AS as well as a comparative pharmaceutical composition known from the prior art under stressed conditions are shown. Herein the stressed conditions are defined as storage over 5 weeks at 40 °C with 75 % RH and open cap.

Assay (%): 99.6% | Biggest impurity % (RRt) (RRt in brackets in the row below): 0.066%
SMILES: COc1ccccc1OCC(O)CN1CCN(CC(=O)Nc2c(C)cccc2C)CC1 (racemic) [Ranolazine (raw material), (RS)-N-(2,6-Dimethylphenyl)-2-[4-[2-hydroxy-3-(2-methoxyphenoxy)propyl]piperazin-1-yl]acetamide]

Source: EP2524688B1, “Composition for modified release comprising ranolazine” (ratiopharm GmbH, priority 2011, dated 2012)
